The results in this text go back to ChEMBL document CHEMBL1201862, “PubChem BioAssay data set” (2004).

As a reminder, the EC50 is the concentration giving half of the maximal effect. In general, AC50 refers to the midpoint of the concentration-response curve, whichever way the signal moves.

The source made the active and inactive calls. Bounds are passed on as bounds.

Experiment [1] addresses T1, Polyadenylate-binding protein 1 (Homo sapiens, UniProt P11940). Put plainly: PABP1 MLLE–PAM2 interaction inhibitors, dose response, miRNA deadenylation inhibitor project, biochemical, fluorescence polarization, Cy5-PAM2 peptide, secondary (AID 602260). It counts as functional. The settings on record: read-out: IC50_Mean. A general note: Fluorescence polarisation rises when a labelled molecule tumbles more slowly, as on binding a larger partner.

The target of experiment [2] is T1, Polyadenylate-binding protein 1. Description: PABP1 MLLE–PAM2 binding inhibitor potency, dose response, biochemical, fluorescence polarization, FITC-PAM2 peptide (AID 602259). Format: functional. Particulars: read-out: IC50_Mean.
The target of experiment [3] is T2, Methionyl-tRNA synthetase, putative (Trypanosoma brucei brucei, UniProt Q38C91).
T2 sequence (Q38C91 whole entry): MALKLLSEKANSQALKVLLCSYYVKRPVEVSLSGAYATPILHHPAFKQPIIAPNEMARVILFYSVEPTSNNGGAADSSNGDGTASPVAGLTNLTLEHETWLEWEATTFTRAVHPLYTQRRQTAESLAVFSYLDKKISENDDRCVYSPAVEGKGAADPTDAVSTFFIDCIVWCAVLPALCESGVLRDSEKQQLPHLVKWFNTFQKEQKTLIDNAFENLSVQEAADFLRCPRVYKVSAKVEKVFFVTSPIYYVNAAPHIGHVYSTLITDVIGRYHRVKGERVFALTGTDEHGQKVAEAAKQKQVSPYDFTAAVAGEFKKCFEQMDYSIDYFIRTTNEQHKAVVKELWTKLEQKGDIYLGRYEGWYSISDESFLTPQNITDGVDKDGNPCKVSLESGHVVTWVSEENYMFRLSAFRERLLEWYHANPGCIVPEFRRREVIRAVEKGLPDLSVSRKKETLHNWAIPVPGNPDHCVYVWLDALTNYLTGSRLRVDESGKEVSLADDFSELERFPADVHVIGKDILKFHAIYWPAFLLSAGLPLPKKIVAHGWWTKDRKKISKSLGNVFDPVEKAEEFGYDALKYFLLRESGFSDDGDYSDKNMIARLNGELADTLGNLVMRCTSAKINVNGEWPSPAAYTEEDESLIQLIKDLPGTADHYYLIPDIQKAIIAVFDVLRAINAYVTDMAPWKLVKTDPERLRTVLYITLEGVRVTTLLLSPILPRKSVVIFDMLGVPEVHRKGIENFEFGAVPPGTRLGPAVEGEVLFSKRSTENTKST
Format: functional, Trypanosoma brucei brucei strain 927/4 GUTat10.1.

Experiment [4] can be described thus: Counterscreen for inhibitors of Trypanosoma brucei methionyl tRNA synthetase (MetRS): Luminescence-based cell-based high throughput dose response assay to identify compounds that are cytotoxic to Jurkat human T lymphocyte cells. Format: functional. For orientation: Counterscreens check selectivity or assay interference.
For experiment [5], the target named is T2, Methionyl-tRNA synthetase, putative. It counts as functional, Trypanosoma brucei brucei strain 927/4 GUTat10.1. This is another data set of the same source.
The nature of experiment [6]: cells. Format: functional, cell-based.
The nature of experiment [7]: cells. Format: functional, cell-based. This is another data set of the same source.
The test system of experiment [8] is Vero. Description: host cell cytotoxicity of antiviral hits, dose response, cytotoxicity control for West Nile virus antiviral project, secondary assay (AID 1650). Format: functional. The settings on record: Chlorocebus sabaeus.
Experiment [9] can be described thus: microbe, parasite or virus in culture. It counts as functional. Particulars: Mycobacterium tuberculosis.
Experiment [10] in a line: cells. It counts as functional.
In experiment [11] the target is T3, Calpain-2 catalytic subunit (Sus scrofa, UniProt P43367).
T3 sequence (P43367 whole entry): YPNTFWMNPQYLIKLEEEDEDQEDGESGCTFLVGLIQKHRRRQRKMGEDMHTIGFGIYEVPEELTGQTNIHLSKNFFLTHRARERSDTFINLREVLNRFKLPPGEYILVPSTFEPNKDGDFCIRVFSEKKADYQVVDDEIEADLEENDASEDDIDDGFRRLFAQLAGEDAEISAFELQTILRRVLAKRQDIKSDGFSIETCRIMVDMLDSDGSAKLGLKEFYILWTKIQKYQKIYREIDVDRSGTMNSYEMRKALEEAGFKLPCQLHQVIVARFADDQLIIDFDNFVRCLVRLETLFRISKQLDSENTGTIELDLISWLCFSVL
Put plainly: pig calpain II inhibitor potency, dose response, biochemical, fluorogenic peptide substrate (AID 1420). It counts as functional.

Experiment [12] is described as follows: HepG2 cell cytotoxicity, dose response, cytotoxicity control, plate reader, cherry-pick, antagonist series (AID 743416). Format: functional, cell-based.
Experiment [13] can be described thus: LGR2 antagonists, dose response, cell-based, HEK293, CRE-luciferase reporter, cherry pick, set 2 (AID 743343).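 Note: transfected cells were stimulated with diluted bursicon conditioned medium after compound addition.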 Format: functional. On the technique in general: In a reporter assay the amount or activity of a reporter protein is the signal.
Experiment [14] in a line: MC4R antagonists, dose response, counter-screen for LGR2 antagonist project, cell-based, plate reader, cherry pick (AID 743444).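 Note: transfected HEK 293 cells stimulated with alpha-MSH peptide; potency of inhibitors of the alpha-MSH evoked signal.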 It counts as functional.
Experiment [15] is described as follows: HEK293 cell cytotoxicity, dose response, cytotoxicity control, plate reader, cherry-picked samples (AID 743446). Format: functional, cell-based.
Experiment [16] has as its target Eukaryotic translation initiation factor 4E (Mus musculus, UniProt P63073). Put plainly: eIF4E–eIF4G protein interaction inhibitors, dose response, biochemical, TR-FRET (AID 855).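 Note: potency for disrupting eIF4E binding to eIF4GI seen as loss of FRET.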 Format: functional.
The subject of experiment [17] is Vero. Put plainly: cells. Particulars: Chlorocebus sabaeus. It counts as functional.
For experiment [18], the target named is FAD-linked sulfhydryl oxidase ALR (Homo sapiens, UniProt P55789). Put plainly: inhibitors of human ALR sulfhydryl oxidase, dose response, biochemical, H2O2 detection, luminescence, cherry-pick (AID 493248).
FAD-linked sulfhydryl oxidase ALR, sequence (P55789 whole entry): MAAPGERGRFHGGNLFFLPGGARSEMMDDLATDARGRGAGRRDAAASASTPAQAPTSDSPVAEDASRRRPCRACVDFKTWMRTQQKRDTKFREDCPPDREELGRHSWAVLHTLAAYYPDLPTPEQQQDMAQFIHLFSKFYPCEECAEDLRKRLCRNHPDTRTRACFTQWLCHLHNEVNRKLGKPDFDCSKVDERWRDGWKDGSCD
Experiment [19] deals with T4, Leucine aminopeptidase (Plasmodium falciparum 3D7, UniProt Q8IL11).
T4 sequence (Q8IL11 whole entry): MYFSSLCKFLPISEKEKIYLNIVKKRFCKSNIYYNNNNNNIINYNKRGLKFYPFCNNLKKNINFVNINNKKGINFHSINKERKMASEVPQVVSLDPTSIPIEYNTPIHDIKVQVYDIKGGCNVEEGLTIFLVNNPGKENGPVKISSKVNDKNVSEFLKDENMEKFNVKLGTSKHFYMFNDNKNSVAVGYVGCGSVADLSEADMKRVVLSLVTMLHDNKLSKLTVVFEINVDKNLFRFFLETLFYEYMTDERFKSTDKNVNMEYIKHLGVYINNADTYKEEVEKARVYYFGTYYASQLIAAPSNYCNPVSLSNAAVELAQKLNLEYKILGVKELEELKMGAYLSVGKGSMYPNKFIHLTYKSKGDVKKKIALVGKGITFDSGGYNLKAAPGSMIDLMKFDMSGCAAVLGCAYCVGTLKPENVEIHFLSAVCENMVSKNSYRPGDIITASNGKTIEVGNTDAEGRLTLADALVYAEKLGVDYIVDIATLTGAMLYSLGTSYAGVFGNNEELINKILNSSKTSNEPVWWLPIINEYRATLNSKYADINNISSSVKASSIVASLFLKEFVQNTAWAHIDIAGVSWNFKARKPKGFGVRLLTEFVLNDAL
Description: P. falciparum M17LAP inhibitors, primary screen, biochemical, fluorogenic H-Leu-NHMec substrate, 1536-well (AID 1619). It counts as functional.

Experiment [20] in a line: A549 cell cytotoxicity, dose response, cytotoxicity control, plate reader, cherry-pick, antagonist series (AID 743412). Format: functional, cell-based.
Experiment [21] can be described thus: HeLa 2N DNA content increase, dose response, cell-based, IC50 (AID 1117349). It counts as functional.
Experiment [22] can be described thus: HeLa 4N DNA content increase, dose response, cell-based, IC50 (AID 1117351). It counts as functional.
A short description of experiment [23]: cytotoxicity toward HT-29 cells – cell-based, CellTiter-Glo luminescence, IC50, dose response (AID 1117330). It counts as functional.
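Throughout, for EC50: agonist potency from rise in intracellular calcium fluorescence.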

T1 sequence (P11940 whole entry): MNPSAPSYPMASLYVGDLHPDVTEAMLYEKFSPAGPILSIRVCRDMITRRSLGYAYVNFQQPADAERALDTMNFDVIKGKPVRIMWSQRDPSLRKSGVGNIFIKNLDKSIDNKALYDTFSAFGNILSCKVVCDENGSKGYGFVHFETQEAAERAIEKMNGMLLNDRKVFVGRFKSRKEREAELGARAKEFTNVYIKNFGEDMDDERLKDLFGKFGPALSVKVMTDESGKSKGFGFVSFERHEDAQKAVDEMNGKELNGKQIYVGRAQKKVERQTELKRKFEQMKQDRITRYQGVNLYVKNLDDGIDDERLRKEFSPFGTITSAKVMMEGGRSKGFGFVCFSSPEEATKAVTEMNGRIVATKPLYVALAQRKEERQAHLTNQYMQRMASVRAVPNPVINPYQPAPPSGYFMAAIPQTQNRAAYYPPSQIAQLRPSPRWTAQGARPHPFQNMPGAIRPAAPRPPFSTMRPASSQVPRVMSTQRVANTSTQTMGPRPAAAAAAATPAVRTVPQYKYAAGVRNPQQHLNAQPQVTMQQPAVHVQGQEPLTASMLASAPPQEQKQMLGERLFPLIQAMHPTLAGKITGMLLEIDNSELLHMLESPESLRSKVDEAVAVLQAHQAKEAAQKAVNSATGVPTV
Eukaryotic translation initiation factor 4E, sequence (P63073 whole entry): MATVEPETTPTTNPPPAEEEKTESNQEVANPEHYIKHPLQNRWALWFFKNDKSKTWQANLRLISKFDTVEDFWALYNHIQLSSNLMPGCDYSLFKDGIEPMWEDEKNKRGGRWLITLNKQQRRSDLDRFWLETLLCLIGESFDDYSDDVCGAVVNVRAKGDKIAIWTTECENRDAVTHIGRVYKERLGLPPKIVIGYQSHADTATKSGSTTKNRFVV

In the case of `O=C(CSc1n[nH]c2c3ccccc3nc-2n1)Nc1ccc2c(c1)OCO2`, the IC50 in [1] was > 66 µM (inactive); in experiment [2], > 66 µM (inactive); in experiment [3], 4.39 µM (active); in experiment [4], 83.3 µM (inactive); in experiment [5] it was 1.57 µM (active).

On to `O=C(Cn1cnc([N+](=O)[O-])c1)NCCc1ccccc1`, for which the IC50 in experiment [6] is > 29.9 µM (inactive). Moreover, the EC50 in experiment [7] is > 29.9 µM (inactive).

In the case of `Cc1ccc(NC(=O)CN2C(=O)CN=C(c3ccccc3)c3cc(Cl)ccc32)cc1`, the IC50 in experiment [3] was 6.78 µM (active); in [4], 6.39 µM (active); in experiment [5] it was 2.82 µM (active).

With `O=C(CCN1C(=O)/C(=C/c2ccccc2Cl)SC1=S)N1CCOCC1`, the CC50 in experiment [8] was 67.3 µM (active).

As to `Oc1ccccc1-c1nnc(COc2ccccc2)o1`, the CC50 in [9] is > 40 µM (active). Besides, in [10], the IC50 is 8.84 µM (active).

In the case of `COC(=O)c1ccc2nc(NC(=O)C(C)(C)C)sc2c1`, in experiment [11], the IC50 is 24.1 µM (not active). In addition, the AC50 was > 52 µM (inactive) in [12], 5.77 µM (active) in experiment [13], 5.69 µM (active) in experiment [14] and > 52 µM (inactive) in [15].

Consider `Cc1ccccc1Cn1ccc(NC(=O)c2nn(C)cc2[N+](=O)[O-])n1`, for which the CC50 in experiment [8] is 12.1 µM (active).

Consider `Cc1ccc(/C=C/C(O)=C2/C(=O)N(C)C3(C)CC2c2ccccc2O3)cc1` (stereo unspecified), for which the CC50 in experiment [8] was 41 µM (active); in experiment [17], 15.4 µM (active). Moreover, the IC50 in [16] was > 64 µM (inactive).

Regarding `O=C1CCCN1CCCNc1ncnc2c1[nH]c1ccc(Cl)cc12`, the concentration at half-maximal activity (AC50) in [18] was 0.943 µM (active). For the same compound, the IC50 in [3] is 8.28 µM (active); in experiment [4], 83.3 µM (inactive); in experiment [5] it was 4.36 µM (active).

Regarding `CCCN(CCC)CCCNC(=O)c1cc2cc3ccc(Cl)cc3nc2o1`, the CC50 in experiment [8] was > 100 µM (active).

Regarding `O=C(c1ccccc1)c1ccc2c(c1)N=C1CCCC(O)=C1C1c3ccccc3C(=O)N21` (stereo unspecified), the CC50 in [9] is 28.9 µM (active).

For `O=C(O)CCc1nnc(SCC(=O)Nc2cccc(C(F)(F)F)c2)nc1O`, in experiment [19], the IC50 was 6.64 µM (active).

Turning to `C[C@H]1CN([C@@H](C)CO)C(=O)Cc2cc(NS(=O)(=O)c3ccc(Cl)cc3)ccc2O[C@@H]1CN(C)Cc1ccccc1`, the AC50 is 13.1 µM (active) in experiment [20]; 16.9 µM (active) in experiment [12]; 31.5 µM (active) in [13]; 38.7 µM (active) in experiment [14]; 29.6 µM (active) in [15].

On to `Clc1cccc(N/N=C(\Cc2nc3ccccc3[nH]2)c2ccccc2)c1`, for which the values for the IC50 in experiment [3], in experiment [4] and in experiment [5] were 4.59 µM (active), 62.2 µM (inactive) and 3.09 µM (active), respectively.

As to `NC(=O)c1cccc(-c2cc(Nc3ccc(OC(F)(F)F)cc3)ncn2)c1`, in experiment [9], the CC50 was > 40 µM (active).

Consider `CC(C)=CCNc1ncnc2c1ncn2[C@@H]1O[C@H](CO)[C@@H](O)[C@H]1O` [RIBOPRINE], for which the IC50 is > 10 µM (inactive) in [21], > 10 µM (inactive) in experiment [22] and > 20 µM (inactive) in experiment [23].
